Measurements from patent US20120027687A1, “FATTY ACID PROTEIN KINASE C ACTIVATORS AND ANTICOAGULANT FOR THE TREATMENT OF STROKE” (priority 2010, published 2012).
Read-outs that look alike come from different tables or passages of the source.

Columns and labels:
[1] = target: T1, PKCε (Homo sapiens, UniProt Q02156); assay: PKC assay with purified PKCε; format: biochemical
T1 construct: purchased Calbiochem
T1 sequence (Q02156 1-737): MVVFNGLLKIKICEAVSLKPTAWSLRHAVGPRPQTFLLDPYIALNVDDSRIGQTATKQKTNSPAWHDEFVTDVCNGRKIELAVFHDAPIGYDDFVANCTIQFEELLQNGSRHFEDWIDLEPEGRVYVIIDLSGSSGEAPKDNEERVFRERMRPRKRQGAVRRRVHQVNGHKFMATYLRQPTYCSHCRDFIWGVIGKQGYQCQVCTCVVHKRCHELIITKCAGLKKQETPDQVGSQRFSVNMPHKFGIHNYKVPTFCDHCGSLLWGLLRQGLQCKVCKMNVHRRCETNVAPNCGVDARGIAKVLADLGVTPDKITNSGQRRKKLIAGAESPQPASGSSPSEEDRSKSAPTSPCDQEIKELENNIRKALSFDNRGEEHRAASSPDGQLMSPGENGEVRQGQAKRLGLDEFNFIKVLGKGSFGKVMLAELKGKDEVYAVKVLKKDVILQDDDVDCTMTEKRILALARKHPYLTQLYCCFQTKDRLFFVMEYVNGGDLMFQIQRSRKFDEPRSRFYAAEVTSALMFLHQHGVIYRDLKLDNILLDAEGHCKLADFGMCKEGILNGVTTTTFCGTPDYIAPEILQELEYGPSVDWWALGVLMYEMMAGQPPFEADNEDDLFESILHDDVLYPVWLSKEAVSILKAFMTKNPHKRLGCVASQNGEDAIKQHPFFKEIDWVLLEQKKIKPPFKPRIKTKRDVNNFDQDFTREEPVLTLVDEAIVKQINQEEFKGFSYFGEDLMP
Procedure: PKC assay. […] 0.5 micro Ci[^γ32P]ATP was added. […] The reaction was stopped by spotting the reaction mixtures on 1×2 cm strips of cellulose phosphate paper (Whatman P81) and immediately washing twice for 1 hr in 0.5% H3PO4. The cellulose phosphate strips were counted in a scintillation counter. In some experiments, phosphatidylserine, diacylglycerol, and/or calcium were removed. […]
To determine their PKC isozyme specificity, fatty acid derivatives were preincubated with purified PKC for five minutes and the PKC activity was measured radiometrically.

[2] = test system: Aβ; assay: Aβ production in N2a neuroblastoma cells transfected with human APPSwe/PSID; format: cell-based, mouse; settings: 24 hours; for levels of intracellular Aβ / levels of secreted Aβ: various concentrations
Procedure: (§1) Cell culture. Rat hippocampal H19-7/IGF-IR cells (ATCC, Manassas, Va.) were plated onto poly-L-lysine coated plates and grown at 35° C. in DMEM/10% FCS for several days until about 50% coverage was obtained. The cells were then induced to differentiate into a neuronal phenotype by replacing the medium with 5 ml N2 medium containing 10 ng/ml basic fibroblast growth factor at 39° C. and grown in T-75 flasks at 37° C. Human SH-SY5Y neuroblastoma cells (ATCC) were cultured in 45% F12K/45% MEM/10% FCS. Mouse N2A neuroblastoma cells were cultured in DMEM/10% FCS without glutamine. Rat hippocampal neurons from 18-day-old embryonic Sprague Dawley rat brains were plated on 12- or 96-well plates coated with poly-D-lysine (Sigma-Aldrich, St. Louis, Mo.) in B-27 neurobasal medium containing 0.5 mM glutamine and 25 μM glutamate (Invitrogen, Carlsbad, Calif.) and cultured for three days in the medium without glutamate. The neuronal cells were grown under 5% CO2 in an incubator maintained at 37° C. for 14 days.
(§2) Aβ Measurement and Cell Viability Assay. Aβ was measured using an Aβ 1-42 human fluorimetric ELISA kit (Invitrogen) according to the manufacturer's instructions. Results were measured in a Biotek Synergy HT microplate reader. AlamarBlue and CyQuant NF (Invitrogen) according to the manufacturer's instructions.
To measure the effects of PKCε activation on Aβ production, mouse neuro2a (N2a) neuroblastoma cells transfected with human APPSwe/PSID were used, which produce large quantities of Aβ. Petanceska et al., J. Neurochem. (1996), vol. 74, pp. 1878-1884. […] With bryostatin, which activates PKC by binding to the diacylglycerol-binding site, the inhibition was biphasic with concentrations of 20 nM or higher producing no net effect. This may be explained by the ability of this class of PKC activators to downregulate PKC when used at high concentrations.

[3] = test system: Aβ; assay: Degradation of exogenously applied Aβ in SH-SY5Y cells; format: cell-based, human; settings: 0.01 μM to 10 μM; 100 nM exogenous Aβ-42; 24 hours
Procedure: as §1, §2
This concentration of Aβ is too low to produce measurable toxicity or cell death. […]

[4] = test system: SH-SY5Y neuroblastoma cells; assay: Cell survival and proliferation (alamar Blue, CyQuant); format: cell-based, human; settings: alamar Blue and CyQuant staining
Procedure: as §2

[5] = test system: TACE; assay: TACE activity in neuronal cells; format: cell-based, human, mouse; settings: SH-SY5Y cells, N2a cells, primary neurons from rat hippocampus
Procedure: TACE Assay. TACE was measured by incubating 5 μl cell homogenate, 3 μl buffer (50 mM Tris-HCl 7.4 plus 25 mM NaCl plus 4% glycerol), and 1 μl of 100 μM TACE substrate (Aβz-[…]-DPa) (Calbiochem) for 20 min at 37° C. 1.5-ml polypropylene centrifuge tubes. Jin et al., Anal. Biochem. (2002), vol. 302, pp. 269-275. The reaction was stopped by cooling to 4° C. The samples were diluted to 1 ml and the fluorescence was rapidly measured (ex=320 nm, em=420 nm) in a Spex Fluorolog 2 spectrofluorometer.

[6] = test system: Endothelin-converting enzyme (ECE); assay: Endothelin-converting enzyme (ECE) activity in neuroblastoma cells; format: cell-based, human; settings: bryostatin 0.27 nM, BR-101 1 μM, BR-111 1 μM
Procedure: ECE assay. […] neuroblastoma cells were incubated with bryostatin (0.27 nM), BR-101 (DCP-LA) (1 μM), and BR-111 (DHA-CP6) (1 μM). Endothelin-converting enzyme (ECE) was measured fluorimetrically using the method of Johnson and Ahn (Anal. Biochem. (2000), vol. 286, pp. 112-118). A sample of cell homogenate (20 μl) was incubated in 50 mM MES-KOH, pH 6.0, 0.01% C12E10 (polyoxyethylene-10-lauryl ether), and 15 μM McaBK2 (7-Methoxycoumarin-4-acetyl [Ala7-(2,4-Dinitrophenyl)Lys9]-bradykinin trifluoroacetate salt) (Sigma-Aldrich). After 60 min at 37° C., the reaction was quenched by adding trifluoroacetic acid to 0.5%. The sample was diluted to 1.4 ml with water and the fluorescence was measured at ex=334 nm, em=398 nm.

[7] = target: PKC; settings: competition with [3H] phorbol dibutyrate; cited from earlier work
[8] = test system: PKC; assay: PKC activation over time in H19-7/IGF-IR hippocampal cells; format: cell-based, rat
Procedure: as §1
Protein kinase C assay. Rat hippocampal cells were cultured and scraped in 0.2 ml homogenization buffer (20 mM Tris-HCl, pH 7.4, 50 mM NaF, 1 μg/ml leupeptin, and 0.1 mM PMSF) and homogenized by sonication a Marsonix microprobe sonicator (5 sec, 10W). To measure PKC, 10 μl of cell homogenate or purified PKC isozyme (purchased from Calbiochem) was incubated for 15 min at 37° C. in the presence of 10 μM histones, 4.89 mM CaCl2, 1.2 μg/μl phosphatidyl-L-serine, 0.18 μg/μl 1,2-dioctanoyl-sn-glycerol, 10 mM MgCl2, 20 mM HEPES (pH 7.4), 0.8 mM EDTA, 4 mM EGTA, 4% glycerol, 8 μg/ml aprotinin, 8 μg/ml leupeptin, and 2 mM benzamidine. 0.5 Ci [^γ32P]ATP was added and ^32P-phosphoprotein formation was measured by adsorption onto phosphocellulose as described previously. Nelson and Alkon, J. Neurochemistry (1995), vol. 65, pp. 2350-2357. For measurements of activation by BR-101 (DCP-LA) and similar compounds. PKC activity was measured in the absence of diacylglycerol and phosphatidylserine and PKC δ, ε, η, and μ were measured in the absence of added EGTA and CaCl2, as described by Kanno et al. (J. Lipid Res. 2006, vol. 47, pp. 1146-1150). Low concentrations of Ca^2+ are used because high Ca^2+ interacts with the PKC phosphatidylserine binding site and prevents activation. For measurements of bryostatin activation, 1,2-diacylglycerol was omitted unless otherwise stated.

[9] = test system: α-secretase; settings: cited from earlier work
[10] = test system: NIC 60 cell line screen; settings: cited from earlier work
[11] = target: protein kinase C; settings: (−)-enantiomer; read-out: potency (EC50); cited from earlier work

CCC1CC1CC1CC1CC1CC1CC1CC1CC1CC1CC1CC1CCC(=O)OC (stereo not drawn) [BR-111, methyl-3-(2-((2-((2-((2-((2-((2-ethylcyclopropyl)methyl)cyclopropyl)methyl)cyclopropyl)methyl)-cyclopropyl)methyl)cyclopropyl)methyl)cyclopropyl)propanoate]
concentration needed to activate PKC, times lower than for BR-101 (DCP-LA) [1]: approximately 100 times
effect on purified PKCε (FIG. 7, FIG. 8) ([1]; preincubated five minutes, radiometric): activated
levels of intracellular Aβ [2]: markedly reduced
levels of secreted Aβ [2]: markedly reduced
concentration dependence of Aβ inhibition ([2]; fatty acid derivatives up to 10 μM to 100 μM): monotonically increasing inhibition
reduction of cellular levels of Aβ [3]: 45%-63%
effect on cell survival [4]: no effect
effect on proliferation [4]: no effect
TACE activity [5]: small increases
ECE activity [6]: sustained increase

CC1=C[C@]23C(=O)[C@@H](C=C(COC(=O)c4ccccc4)[C@@H](O)[C@]2(O)[C@H]1OC(=O)c1ccccc1)[C@H]1[C@@H](C[C@H]3C)C1(C)C [Ingenol 3,20-dibenzoate]
Ki [7]: 240 nM

CCC/C=C/C=C/C(=O)O[C@H]1/C(=C/C(=O)OC)C[C@H]2C[C@H]([C@@H](C)O)OC(=O)C[C@H](O)C[C@@H]3C[C@H](OC(C)=O)C(C)(C)[C@](O)(C[C@@H]4C/C(=C/C(=O)OC)C[C@H](/C=C/C(C)(C)[C@]1(O)O2)O4)O3 [Bryostatin-1]
PKC downregulation following activation ([8]; 0.04 nM and 0.2 nM): 20%
time of return of PKC to baseline ([8]; 0.04 nM and 0.2 nM): ≤ 24 h
PKC activation ([8]; 0.04 nM and 0.2 nM, data not shown): 2 fold
PKC activity at 8 hours (downregulation) ([8]; 8 hours, data not shown): at or near the baseline
levels of intracellular Aβ [2]: markedly reduced
levels of secreted Aβ [2]: markedly reduced
effect on cell survival [4]: no effect
TACE activity [5]: small increases
ECE activity [6]: sustained increase
increase of initial rate of α-secretase activity ([9]; 10 μM): 16 fold
increase of initial rate of α-secretase activity ([9]; 100 μM): 132 fold

CC1=CC[C@H](C)C(C)(C)[C@@H]1/C=C/C(C)=C/CC[C@@]1(CO)[C@H](CCCO)/C(=C(/C)C=O)CC[C@]1(C)O [Iripallidal]
GI50 (concentration required to inhibit growth by 50%) [10]: micromolar to nanomolar range

CCCCCCCCc1ccc2c3c(c[nH]c13)C[C@@H](CO)NC(=O)[C@H](C(C)C)N2C [Octylindolactam V]
EC50 [11]: 29 nM
